Source: patent publication US10174016B2 (BAYER AKTIENGESELLSCHAFT, priority 2014, dated 2019)
pIC50: −log10 of the molar value. Read-outs that look alike come from different tables or passages of the source.

Experiments:
[1] = molecular target: human P2X2/3 receptor (Homo sapiens (Human), UniProt P56373+Q9UBL9); assay: Intracellular calcium measurement (FLIPR, Fluo-4) of antagonist activity at human P2X2/3 receptors; type: cell-based; conditions: for pIC50: human P2X2/3, FLIPR calcium assay, agonist α,β-Me-ATP, read-out: hP2X2/3 IC50
human P2X2/3 receptor, sequence (P56373 whole entry): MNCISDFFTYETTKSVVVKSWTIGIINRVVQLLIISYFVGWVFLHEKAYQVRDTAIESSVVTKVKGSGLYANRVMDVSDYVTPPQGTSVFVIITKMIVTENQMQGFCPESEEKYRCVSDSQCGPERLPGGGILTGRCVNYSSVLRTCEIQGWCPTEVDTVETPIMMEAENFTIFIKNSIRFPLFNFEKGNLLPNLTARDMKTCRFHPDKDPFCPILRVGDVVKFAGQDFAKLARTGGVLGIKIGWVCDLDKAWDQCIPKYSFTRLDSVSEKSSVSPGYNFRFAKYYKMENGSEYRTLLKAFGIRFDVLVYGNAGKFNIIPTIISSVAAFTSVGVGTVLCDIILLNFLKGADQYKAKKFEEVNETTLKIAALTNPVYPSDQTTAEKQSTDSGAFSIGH
human P2X2/3 receptor, sequence (Q9UBL9 whole entry): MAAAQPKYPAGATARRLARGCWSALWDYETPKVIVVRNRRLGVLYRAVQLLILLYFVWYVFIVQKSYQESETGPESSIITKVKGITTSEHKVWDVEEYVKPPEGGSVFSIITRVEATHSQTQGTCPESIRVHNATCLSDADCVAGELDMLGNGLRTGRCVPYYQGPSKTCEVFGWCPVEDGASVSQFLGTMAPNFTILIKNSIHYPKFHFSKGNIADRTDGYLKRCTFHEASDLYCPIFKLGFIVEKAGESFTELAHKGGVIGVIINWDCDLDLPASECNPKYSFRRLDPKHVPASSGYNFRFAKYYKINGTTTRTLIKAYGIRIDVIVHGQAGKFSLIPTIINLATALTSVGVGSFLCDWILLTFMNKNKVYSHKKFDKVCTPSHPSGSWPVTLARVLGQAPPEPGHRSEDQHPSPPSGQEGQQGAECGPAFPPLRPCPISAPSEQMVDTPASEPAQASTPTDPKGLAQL
Method: (§1) Intracellular Calcium Measurement to Assess Antagonist Activity at Human P2X3 and Human P2X2/3 Receptors
(§2) A fluorescent imaging plate reader (FLEX/FLIPR station; Molecular Devices) was used to monitor intracellular calcium levels using the calcium-chelating dye Fluo-4 (Molecular Probes). […] Cells expressing purinergic receptors P2X3 (human) or P2X2/3 (human) were plated at a density of 15,000 cells/well in collagen-coated 384-well plates approximately 20 hours before beginning the assay. […] The test compound was added in a volume of 5 μl and allowed to incubate for 30 min at 37° C. The final assay DMSO concentration is 1%. The agonist, α,β-Me-ATP, was added in a volume of 20 μl at a concentration representing the EC80 value. The fluorescence was measured for an interval of 90 sec at 2 sec intervals and analyzed based on the increase in peak relative fluorescence units (RFU) compared to the basal fluorescence. Peak fluorescence was used to determine the response to agonist obtained at each concentration of test compound by the following equation: % Response=100*(RFU(test compound)−RFU(control)/RFU(DMSO)−RFU(control))
(§3) The Examples were tested in triplicates per plate and mean values were plotted in Excel XLFit to determine IC50 values at the human P2X3 and human P2X2/3 receptors, percentage of maximal inhibition and the Hill coefficients.

[2] = molecular target: human P2X3 receptor (Homo sapiens (Human), UniProt P56373); assay: Intracellular calcium measurement (FLIPR, Fluo-4) of antagonist activity at human P2X3 receptors; type: cell-based; conditions: read-out: hP2X3 IC50
human P2X3 receptor, sequence (P56373 whole entry): as the sequence (P56373 whole entry) above
Method: as §1, §2, §3

[3] = human P2X3, FLIPR calcium assay, agonist α,β-Me-ATP

SMILES | pIC50 [1] | pIC50 [2, 3] | IC50 ([1]; hP2X2/3 IC50 (nM)) [nM] | pIC50 [2]
Cc1cnc(-c2cc(O[C@@H]3CCOC3)cc(C(=O)NC(C)c3ncc(F)cc3Cl)c2)s1 (stereo partly drawn) [Example 13, N-[1-(3-chloro-5-fluoropyridin-2-yl)ethyl]-3-(5-methyl-1,3-thiazol-2-yl)-5-[(3R)-tetrahydrofuran-3-yloxy]benzamide] | 5.96 | 7.68 |  | 
Cc1cnc(-c2cc(O[C@@H]3CCOC3)cc(C(=O)NC(C)c3ncc(Cl)cc3F)c2)s1 (stereo partly drawn) [Example 14, N-[1-(5-chloro-3-fluoropyridin-2-yl)ethyl]-3-(5-methyl-1,3-thiazol-2-yl)-5-[(3R)-tetrahydrofuran-3-yloxy]benzamide] | 7.06 | 8.10 |  | 
Cc1cnc(-c2cc(O[C@@H]3CCOC3)cc(C(=O)N[C@H](C)c3ccc(Cl)cn3)c2)s1 [Example 15, N-[(1R)-1-(5-chloropyridin-2-yl)ethyl]-3-(5-methyl-1,3-thiazol-2-yl)-5-[(3R)-tetrahydrofuran-3-yloxy]benzamide] | 6.83 | 8.22 |  | 
Cc1ccc(CNC(=O)c2cc(O[C@@H]3CCOC3)cc(-c3ncc(C)s3)c2)nn1 [Example 17, N-[(6-methylpyridazin-3-yl)methyl]-3-(5-methyl-1,3-thiazol-2-yl)-5-[(3R)-tetrahydrofuran-3-yloxy]benzamide] | 6.00 | 7.46 |  | 
Cc1ccc([C@@H](C)NC(=O)c2cc(O[C@@H]3CCOC3)cc(-c3ncc(C)s3)c2)nn1 [Example 18, N-[(1R)-1-(6-methylpyridazin-3-yl)ethyl]-3-(5-methyl-1,3-thiazol-2-yl)-5-[(3R)-tetrahydrofuran-3-yloxy]benzamide] | 6.37 | 7.47 |  | 
Cc1cnc(-c2cc(O[C@@H]3CCOC3)cc(C(=O)N[C@H](C)c3ccc(C(F)(F)F)nn3)c2)s1 [Example 19, 3-(5-Methyl-1,3-thiazol-2-yl)-5-[(3R)-tetrahydrofuran-3-yloxy]-N-{(1R)-1-[6-(trifluoromethyl)pyridazin-3-yl]ethyl}benzamide] | 6.13 | 7.72 |  | 
Cc1cnc(-c2cc(O[C@@H]3CCOC3)cc(C(=O)N[C@H](C)c3nnc(C)s3)c2)s1 [Example 20, N-[(1R)-1-(5-methyl-1,3,4-thiadiazol-2-yl)ethyl]-3-(5-methyl-1,3-thiazol-2-yl)-5-[(3R)-tetrahydrofuran-3-yloxy]benzamide] | 6.31 | 7.46 |  | 
Cc1cnc(-c2cc(O[C@@H]3CCOC3)cc(C(=O)NCc3ccc(C(F)(F)F)nn3)c2)s1 [Example 21, 3-(5-Methyl-1,3-thiazol-2-yl)-5-[(3R)-tetrahydrofuran-3-yloxy]-N-{[6-(trifluoromethyl)pyridazin-3-yl]methyl}benzamide] | 6.35 | 7.15 |  | 
CC[C@@H](NC(=O)c1cc(O[C@@H]2CCOC2)cc(-c2ncc(C)s2)c1)c1cnc(C(F)(F)F)nc1 [Example 22, 3-(5-Methyl-1,3-thiazol-2-yl)-5-[(3R)-tetrahydrofuran-3-yloxy]-N-{(1R)-1-[2-(trifluoromethyl)pyrimidin-5-yl]propyl}benzamide] | 6.01 | 6.88 |  | 
Cc1ncc([C@@H](C)NC(=O)c2cc(O[C@@H]3CCOC3)cc(-c3ncc(C)s3)c2)cn1 [Example 23, N-[(1R)-1-(2-Methylpyrimidin-5-yl)ethyl]-3-(5-methyl-1,3-thiazol-2-yl)-5-[(3R)-tetrahydrofuran-3-yloxy]benzamide] |  |  | 1110 | 7.52
Cc1ccc([C@@H](C)NC(=O)c2cc(O[C@@H]3CCOC3)cc(-c3ncc(C)s3)c2)cn1 [Example 24, N-[(1R)-1-(6-Methylpyridin-3-yl)ethyl]-3-(5-methyl-1,3-thiazol-2-yl)-5-[(3R)-tetrahydrofuran-3-yloxy]benzamide] | 6.48 | 7.44 |  | 
Cc1ccc([C@@H](C)NC(=O)c2cc(O[C@H]3CCOC3)cc(-c3ncc(C)s3)c2)nn1 [Example 25, N-[(1R)-1-(6-Methylpyridazin-3-yl)ethyl]-3-(5-methyl-1,3-thiazol-2-yl)-5-[(3S)-tetrahydrofuran-3-yloxy]benzamide] | 6.01 | 7.41 |  | 
Cc1cnc(-c2cc(O[C@H]3CCOC3)cc(C(=O)N[C@H](C)c3ccc(Cl)cn3)c2)s1 [Example 27, N-[(1R)-1-(5-Chloropyridin-2-yl)ethyl]-3-(5-methyl-1,3-thiazol-2-yl)-5-[(3S)-tetrahydrofuran-3-yloxy]benzamide] | 6.55 | 7.60 |  | 
Cc1ccc([C@@H](C)NC(=O)c2cc(O[C@H]3CCOC3)cc(-c3ncc(C)s3)c2)nc1 [Example 28, N-[(1R)-1-(5-Methylpyridin-2-yl)ethyl]-3-(5-methyl-1,3-thiazol-2-yl)-5-[(3S)-tetrahydrofuran-3-yloxy]benzamide] | 6.92 | 7.32 |  | 
Cc1ccc([C@@H](C)NC(=O)c2cc(O[C@H]3CCOC3)cc(-c3ncc(C)s3)c2)cn1 [Example 30, N-[(1R)-1-(6-methylpyridin-3-yl)ethyl]-3-(5-methyl-1,3-thiazol-2-yl)-5-[(3S)-tetrahydrofuran-3-yloxy]benzamide] | 6.31 | 7.42 |  | 
C#CCOc1cc(C(=O)NCc2ccc(C)nn2)cc(-c2ncc(C)s2)c1 [Example 31, N-[(6-Methylpyridazin-3-yl)methyl]-3-(5-methyl-1,3-thiazol-2-yl)-5-(prop-2-yn-1-yloxy)benzamide] | ≤ 5.00 | 6.76 |  | 
C#CCOc1cc(C(=O)N[C@H](C)c2ccc(C)nc2)cc(-c2ncc(C)s2)c1 [Example 33, N-[(1R)-1-(6-Methylpyridin-3-yl)ethyl]-3-(5-methyl-1,3-thiazol-2-yl)-5-(prop-2-yn-1-yloxy)benzamide] | 6.04 | 7.54 |  | 
C#CCOc1cc(C(=O)N[C@H](C)c2cnc(C)cn2)cc(-c2ncc(C)s2)c1 [Example 34, N-[(1R)-1-(5-Methylpyrazin-2-yl)ethyl]-3-(5-methyl-1,3-thiazol-2-yl)-5-(prop-2-yn-1-yloxy)benzamide] | 5.67 | 6.95 |  | 
C#CCOc1cc(C(=O)NCc2cnc(C)cn2)cc(-c2ncc(C)s2)c1 [Example 35, N-[(5-Methylpyrazin-2-yl)methyl]-3-(5-methyl-1,3-thiazol-2-yl)-5-(prop-2-yn-1-yloxy)benzamide] | ≤ 5.00 | 6.34 |  | 
C#CCOc1cc(C(=O)N[C@H](C)c2cnc(C(F)(F)F)nc2)cc(-c2ncc(C)s2)c1 [Example 36, 3-(5-Methyl-1,3-thiazol-2-yl)-5-(prop-2-yn-1-yloxy)-N-{(1R)-1-[2-(trifluoromethyl)pyrimidin-5-yl]ethyl}benzamide] | 6.51 | 7.85 |  | 
C#CCOc1cc(C(=O)N[C@H](C)c2ccc(C(F)(F)F)nn2)cc(-c2ncc(C)s2)c1 [Example 38, 3-(5-Methyl-1,3-thiazol-2-yl)-5-(prop-2-yn-1-yloxy)-N-[(1R)-1-[6-(trifluoromethyl)pyridazin-3-yl]ethyl]benzamide] | 5.94 | 7.26 |  | 
C#CCOc1cc(C(=O)N[C@H](C)c2cnc(C)nc2)cc(-c2ncc(C)s2)c1 [Example 39, N-[(1R)-1-(2-Methylpyrimidin-5-yl)ethyl]-3-(5-methyl-1,3-thiazol-2-yl)-5-(prop-2-yn-1-yloxy)benzamide] | 5.78 | 7.09 |  | 
